Assay [1] deals with methicillin-sensitive Staphylococcus aureus. Kind of assay: MIC by broth micro-dilution (CLSI), methicillin-sensitive S. aureus. The class given is cell-based. The note with it: MSSA S. aureus ATCC29213. (In general: Broth dilution looks for growth in wells or tubes with falling amounts of substance.)
Assay [2] concerns carbapenem sensitive Escherichia coli. Briefly: MIC by broth micro-dilution (CLSI), carbapenem sensitive E. coli. The class given is cell-based.
For assay [3], the system named is carbapenemase producing K. pneumoniae. Kind of assay: MIC by broth micro-dilution (CLSI), carbapenemase producing K. pneumoniae. The class given is cell-based, Klebsiella pneumoniae.
The subject of assay [4] is carbapenem sensitive Pseudomonas aeruginosa. Briefly: MIC by broth micro-dilution (CLSI), carbapenem sensitive P. aeruginosa. It counts as cell-based.
Setting [5] is: Staphylococcus aureus, ATCC 29213 / MSSA, read-out: MIC.
[6] abbreviates: Escherichia coli, ATCC25922, ESBL −ve E. coli ATCC25922, read-out: MIC.
[7] abbreviates: Klebsiella pneumoniae, ATCCBAA1705, KPC-2 K. pneumoniae ATCC BAA-1705, read-out: MIC.
The mark [8] stands for this setting: Pseudomonas aeruginosa, ATCC27853, Meropenem susceptible P. aeruginosa ATCC27853, read-out: MIC.
Where [9] appears, read: KPC-2 K. pneumoniae ATCC BAA-1705.
The mark [10] stands for this setting: Meropenem susceptible P. aeruginosa ATCC27853.

The text below walks through data of patent US11180504B2 (ORCHID PHARMA LTD., priority 2016, dated 2021).

Each structure is given as a SMILES string. Converted amounts (≈) assume the structure as drawn. Like-named read-outs stand apart in the source and are kept apart here. Where only a bound is given, the exact number is not on record here.

With `C[C@@H](NC(=O)Cn1cnnn1)[C@H]1C(=O)N2C(C(=O)O)=C(S[C@@H]3CN[C@H](C(=O)N4CCC(N5CC(N)C5)CC4)C3)[C@H](C)[C@H]12` [Example 342, (4R,5S,6R)-6-((R) - 1-(2-(1H-tetrazol-1-yl)acetamido)ethyl)-3-((3S,5S)-5-(4-(3-aminoazetidin-1-yl)piperidine-1-carbonyl)pyrrolidin-3-ylthino)-4-methyl-7-oxo-1-azabicyclo[3.2.0]hept-2-ene-2-carboxylic acid], the MIC is 16 µg/mL (≈ 26.5 µM) in assay [1] (setting [5]), 2 µg/mL (≈ 3.32 µM) in assay [2] (setting [6]), 8 µg/mL (≈ 13.3 µM) in assay [3] (setting [7]) and 8 µg/mL (≈ 13.3 µM) in assay [4] (setting [8]).
`C[C@@H](NC(=O)Cn1cnnn1)[C@H]1C(=O)N2C(C(=O)O)=C(SCCNC(=N)N)[C@H](C)[C@H]12` [Example 579, (4R,5S,6R)-6-((R)-1-(2-(1H-tetrazol-1-yl)acetamido)ethyl)-3-(2-guanidinoethylthio)-4-methyl-7-oxo-1-azabicyclo[3.2.0]hept-2-ene-carboxylic acid]: the minimal inhibitory concentration (MIC) was 4 µg/mL (≈ 9.14 µM) in assay [1] (setting [5]), 0.25 µg/mL (≈ 0.571 µM) in assay [2] (setting [6]), 1 µg/mL (≈ 2.29 µM) in assay [3] (setting [7]) and 16 µg/mL (≈ 36.6 µM) in assay [4] (setting [8]).
As to `CC(=O)N1C[C@@H](N)C[C@H]1CSC1=C(C(=O)O)N2C(=O)[C@H]([C@@H](C)NC(=O)C(F)F)[C@H]2[C@H]1C` [Example 265], the minimal inhibitory concentration (MIC) was 2 µg/mL (≈ 4.34 µM) in assay [1] (setting [5]), 2 µg/mL (≈ 4.34 µM) in assay [2] (setting [6]), 8 µg/mL (≈ 17.4 µM) in assay [3] (setting [7]) and over 128 µg/mL in assay [4] (setting [8]).
`C[C@@H](NC(=O)Cn1cnnn1)[C@H]1C(=O)N2C(C(=O)O)=C(S[C@@H]3CN[C@H](C(=O)N4C[C@@H](O)[C@@H](NC(=N)N)C4)C3)[C@H](C)[C@H]12` [Example 546, (4R,5S,6R)-6-((R)-1-(2-(1H-tetrazol-1-yl)acetamido)ethyl)-3-((3S,5S)-5-((3S,4R)-3-guanidino-4-hydroxypyrrolidine-1-carbonyl)pyrrolidin-3-ylthio)-4-methyl-7-oxo-1-azabicyclo[3.2.0]hept-2-ene-2-carboxylic acid]: the minimum inhibitory concentration (MIC) in assay [1] (setting [5]) was determined as 1 µg/mL (≈ 1.69 µM); in assay [2] (setting [6]), 0.25 µg/mL (≈ 0.423 µM); in assay [3] (setting [7]), 1 µg/mL (≈ 1.69 µM); in assay [4] (setting [8]) it was 2 µg/mL (≈ 3.38 µM).
As to `CNCC(=O)N[C@H](C)[C@H]1C(=O)N2C(C(=O)O)=C(S[C@@H]3CN[C@H](C(=O)N4C[C@@H](O)[C@H](NC(=N)N)C4)C3)[C@H](C)[C@H]12` [Example 588, (4R,5S,6R)-3-((3S,5S)-5-((3R,4R)-3-guanidino-4-hydroxypyrrolidine-1-carbonyl)pyrrolidin-3-ylthio)-4-methyl-6-((R)-1-(2-(methylamino)acetamido)ethyl)-7-oxo-1-azabicyclo[3.2.0]hept-2-ene-2-carboxylic acid], the MIC in assay [1] (setting [5]) was 32 µg/mL (≈ 57.9 µM); in assay [2] (setting [6]) it was 4 µg/mL (≈ 7.24 µM); in assay [3] (setting [7]), 4 µg/mL (≈ 7.24 µM); in assay [4] (setting [8]), 4 µg/mL (≈ 7.24 µM).
As to `C[C@@H](NC(=O)Cn1cnnn1)[C@H]1C(=O)N2C(C(=O)O)=C(S[C@@H]3CN[C@H](C(=O)N4CCC[C@H]4CN)C3)[C@H](C)[C@H]12` [Example 464, (4R,5S,6R)-6-((R)-1-(2-(1-tetrazol-1-yl)acetamido)ethyl)-3-((3S,5S)-5-((S)-2-(aminomethyl)pyrrolidine-1-carbooyl)pyrrolidin-3-ylthio)-4-methyl-7-oxo-1-azabicyclo[3.2.0]hept-2-ene-2-carboxylic acid], the minimal inhibitory concentration (MIC) was found to be 4 µg/mL (≈ 7.3 µM) in assay [1] (setting [5]), 1 µg/mL (≈ 1.83 µM) in assay [2] (setting [6]), 4 µg/mL (≈ 7.3 µM) in assay [3] (setting [7]) and 16 µg/mL (≈ 29.2 µM) in assay [4] (setting [8]).
With `C[C@@H](NC(=O)CN1CCn2nnnc2C1)[C@H]1C(=O)N2C(C(=O)O)=C(S[C@@H]3CN[C@H](C(=O)N4CC[C@@H](N)C4)C3)[C@H](C)[C@H]12` [Example 390, (4R,5S,6R)-3-((3S,5S)-5-((R)-3-aminopyrrolidine-1-carbonyl)pyrrolidin-3-ylthio)-6-((R)-1-(2-(5,6-dihydrotetrazolo[1,5-a]pyrazin-7(8H)-yl)acetamido)ethyl)-4-methyl-7-oxo-1-azabicyclo[3.2.0]hept-2-ene-2-carboxylic acid], the MIC in assay [1] (setting [5]) amounted to 4 µg/mL (≈ 6.79 µM); in assay [2] (setting [6]), 1 µg/mL (≈ 1.7 µM); in assay [3] (setting [7]) it was 16 µg/mL (≈ 27.2 µM); in assay [4] (setting [8]), 128 µg/mL (≈ 217 µM).
Consider `C[C@@H](NC(=O)Cn1cnnn1)[C@H]1C(=O)N2C(C(=O)O)=C(S[C@@H]3CN[C@H](C(=O)N4C[C@H](O)[C@H](NC(=N)N)C4)C3)[C@H](C)[C@H]12` [Example 545, (4R,5S,6R)-6-((R)-1-(2-(1H-tetrazol-1-yl)acetamido)ethyl)-3-((3S,5S)-5-((3R,4S)-3-guanidino-4-hydroxypyrrolidine-1-carbonyl)pyrrolidin-3-ylthio)-4-methyl-7-oxo-1-azabicyclo[3.2.0)hept-2-ene-2-carboxylic acid], for which the minimum inhibitory concentration (MIC) amounted to 1 µg/mL (≈ 1.69 µM) in assay [1] (setting [5]), 0.125 µg/mL (≈ 0.211 µM) in assay [2] (setting [6]), 0.5 µg/mL (≈ 0.845 µM) in assay [3] (setting [7]) and 1 µg/mL (≈ 1.69 µM) in assay [4] (setting [8]).
With `C[C@@H](NC(=O)Cn1cnnn1)[C@H]1C(=O)N2C(C(=O)O)=C(S[C@@H]3CN[C@H](C(=O)N4CCCC45CCCNC5)C3)[C@H](C)[C@H]12` (single isomer, unassigned) [Example 504], the MIC was found to be 2 µg/mL (≈ 3.4 µM) in assay [1], 0.5 µg/mL (≈ 0.851 µM) in assay [2] (ESBL −ve E. coli ATCC25922), 4 µg/mL (≈ 6.81 µM) in assay [3] (setting [9]) and 32 µg/mL (≈ 54.4 µM) in assay [4] (setting [10]).
Regarding `CNCC(=O)N[C@H](C)[C@H]1C(=O)N2C(C(=O)O)=C(S[C@@H]3CN[C@H](C(=O)N4C[C@@H](N)[C@H](O)C4)C3)[C@H](C)[C@H]12` [Example 297], the MIC was 16 µg/mL (≈ 31.3 µM) in assay [1] (setting [5]), 1 µg/mL (≈ 1.96 µM) in assay [2] (setting [6]), 2 µg/mL (≈ 3.92 µM) in assay [3] (setting [7]) and 4 µg/mL (≈ 7.83 µM) in assay [4] (setting [8]).
In the case of `C[C@@H](NC(=O)C(F)F)[C@H]1C(=O)N2C(C(=O)O)=C(S[C@@H]3CN[C@H](C(=O)N4CC[C@H](NCc5cc(=O)c(O)cn5C)C4)C3)[C@H](C)[C@H]12` [Example 246], the MIC in assay [1] (setting [5]) was 32 µg/mL (≈ 50.1 µM); in assay [2] (setting [6]) it was 8 µg/mL (≈ 12.5 µM); in assay [3] (setting [7]) it was 128 µg/mL (≈ 200 µM); in assay [4] (setting [8]) it was over 128 µg/mL.
The corresponding values for `C[C@@H](NC(=O)Cn1cnnn1)[C@H]1C(=O)N2C(C(=O)O)=C(S[C@@H]3CN[C@H](C(=O)N4CCC5NCCCC54)C3)[C@H](C)[C@H]12` (single isomer, unassigned) [Example 468] are 4 µg/mL (≈ 6.97 µM), 0.5 µg/mL (≈ 0.872 µM), 2 µg/mL (≈ 3.49 µM) and 8 µg/mL (≈ 13.9 µM).
As for `C[C@@H](NC(=O)Cn1cnnn1)[C@H]1C(=O)N2C(C(=O)O)=C(S[C@H]3CCN(C(=O)CN)C3)[C@H](C)[C@H]12` [Example 449, (4R,5S,6R)-6-((R)-1-(2-(1H-tetrazol-1-yl)acetamido)ethyl)-3-((S)-1-(2-aminoacetyl)pyrrolidin-3-ylthio)-4-methyl-7-oxo-1-azabicyclo[3.2.0]hept-2-ene-2-carboxylic acid], the MIC in assay [1] (setting [5]) stood at 4 µg/mL (≈ 8.36 µM); in assay [2] (setting [6]), 0.5 µg/mL (≈ 1.04 µM); in assay [3] (setting [7]), 4 µg/mL (≈ 8.36 µM); in assay [4] (setting [8]) it was 64 µg/mL (≈ 134 µM).
Regarding `C[C@@H](NC(=O)Cn1cnnn1)[C@H]1C(=O)N2C(C(=O)O)=C(S[C@@H]3CN[C@H](C(=O)N4CCC5CN(C[C@@H](O)CN)CCC54)C3)[C@H](C)[C@H]12` (single isomer, unassigned) [Example 532], the minimal inhibitory concentration (MIC) in assay [1] was determined as 4 µg/mL (≈ 6.18 µM); in assay [2] (ESBL −ve E. coli ATCC25922) it was 0.25 µg/mL (≈ 0.387 µM); in assay [3] (setting [9]), 2 µg/mL (≈ 3.09 µM); in assay [4] (setting [10]), 2 µg/mL (≈ 3.09 µM).

Broadly, the MIC is the least concentration at which growth counts as inhibited.
